# Results published in ChEMBL document CHEMBL3862033 (J Med Chem, 2016).
# How the values were obtained:
# [1] = target: 5-hydroxytryptamine receptor 5A (Homo sapiens) (UniProt P47898); assay: Displacement of [3H]LSD from human 5-HT5A receptor expressed in Flp-In-CHO cell membranes incubated for 90 mins under dark condition by microbeta scintillation counting method relative to control; design: concentration or dose not given beside the values
# [2] = target: 5-hydroxytryptamine receptor 4 (Homo sapiens) (UniProt Q13639); assay: Displacement of [3H]GR113808 from human 5-HT4 receptor at 10 uM incubated for 90 mins under dark condition by microbeta scintillation counting method relative to control
# [3] = target: 5-hydroxytryptamine receptor 6 (Homo sapiens) (UniProt P50406); assay: Displacement of [3H]LSD from human 5-HT6 receptor expressed in HEK cell membranes at 10 uM incubated for 90 mins under dark condition by microbeta scintillation counting method relative to control; settings: HEK293
# [4] = target: T1, 5-hydroxytryptamine receptor 3A (Homo sapiens) (UniProt P46098); assay: Displacement of [3H]GR65630 from human 5-HT3 receptor expressed in HEK-T cell membranes at 10 uM incubated for 90 mins under dark condition by microbeta scintillation counting method relative to control
# T1 sequence (whole entry): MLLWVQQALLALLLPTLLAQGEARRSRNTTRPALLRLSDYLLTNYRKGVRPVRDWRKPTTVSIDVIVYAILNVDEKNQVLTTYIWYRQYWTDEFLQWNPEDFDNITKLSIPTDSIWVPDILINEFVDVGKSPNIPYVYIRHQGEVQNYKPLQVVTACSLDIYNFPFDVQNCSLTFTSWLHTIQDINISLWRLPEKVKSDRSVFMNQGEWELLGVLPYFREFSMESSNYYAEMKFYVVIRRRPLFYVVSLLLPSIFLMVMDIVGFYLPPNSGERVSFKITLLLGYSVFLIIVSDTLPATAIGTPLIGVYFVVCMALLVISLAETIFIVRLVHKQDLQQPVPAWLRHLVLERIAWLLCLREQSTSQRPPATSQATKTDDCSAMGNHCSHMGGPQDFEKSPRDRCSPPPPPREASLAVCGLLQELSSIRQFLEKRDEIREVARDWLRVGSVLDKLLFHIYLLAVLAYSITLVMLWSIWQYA
# [5] = target: T2, 5-hydroxytryptamine receptor 2A (Homo sapiens, UniProt P28223); assay: Displacement of [3H]ketanserin from human 5-HT2A receptor expressed in HEK-T cell membranes incubated for 90 mins under dark condition by microbeta scintillation counting method
# [6] = target: 5-hydroxytryptamine receptor 7 (Homo sapiens) (UniProt P34969); assay: Displacement of [3H]LSD from human 5-HT7A receptor expressed in HEK cell membranes at 10 uM incubated for 90 mins under dark condition by microbeta scintillation counting method relative to control; settings: HEK293
# [7] = target: 5-hydroxytryptamine receptor 1E (Homo sapiens) (UniProt P28566); assay: Displacement of [3H]5-HT from human 5-HT1E receptor expressed in HEK cell membranes at 10 uM incubated for 90 mins under dark condition by microbeta scintillation counting method relative to control; settings: HEK293
# [8] = target: 5-hydroxytryptamine receptor 1D (Homo sapiens) (UniProt P28221); assay: Displacement of [3H]5-CT from human 5-HT1D receptor expressed in HEK-T cell membranes at 10 uM incubated for 90 mins under dark condition by microbeta scintillation counting method relative to control
# [9] = target: T3, 5-hydroxytryptamine receptor 2C (Homo sapiens) (UniProt P28335); assay: Displacement of [3H]mesulergine from human 5-HT2CR expressed in Flp-In HEK cell membranes at 10 uM incubated for 90 mins under dark condition by microbeta scintillation counting method relative to control; settings: HEK293
# T3 sequence (whole entry): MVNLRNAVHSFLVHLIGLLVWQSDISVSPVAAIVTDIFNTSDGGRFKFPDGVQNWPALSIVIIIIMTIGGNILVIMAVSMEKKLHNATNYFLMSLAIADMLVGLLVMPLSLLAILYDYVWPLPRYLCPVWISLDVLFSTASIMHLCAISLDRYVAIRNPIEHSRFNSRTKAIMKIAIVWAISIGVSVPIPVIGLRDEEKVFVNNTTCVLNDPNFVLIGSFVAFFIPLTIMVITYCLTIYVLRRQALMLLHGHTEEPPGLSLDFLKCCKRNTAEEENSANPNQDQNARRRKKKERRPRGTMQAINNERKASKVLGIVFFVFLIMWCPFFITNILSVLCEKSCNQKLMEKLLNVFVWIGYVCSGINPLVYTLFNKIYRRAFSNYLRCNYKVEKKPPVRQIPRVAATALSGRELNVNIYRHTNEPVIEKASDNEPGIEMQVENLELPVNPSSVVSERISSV
# [10] = target: T4, 5-hydroxytryptamine receptor 2B (Homo sapiens, UniProt P41595); settings: HEK293, at 10 µM
# [11] = target: T5, 5-hydroxytryptamine receptor 1A (Homo sapiens) (UniProt P08908); assay: Displacement of [3H]WAY100635 from human 5-HT1AR expressed in CHO cell membranes at 10 uM incubated for 90 mins under dark condition by microbeta scintillation counting method relative to control
# T5 sequence (whole entry): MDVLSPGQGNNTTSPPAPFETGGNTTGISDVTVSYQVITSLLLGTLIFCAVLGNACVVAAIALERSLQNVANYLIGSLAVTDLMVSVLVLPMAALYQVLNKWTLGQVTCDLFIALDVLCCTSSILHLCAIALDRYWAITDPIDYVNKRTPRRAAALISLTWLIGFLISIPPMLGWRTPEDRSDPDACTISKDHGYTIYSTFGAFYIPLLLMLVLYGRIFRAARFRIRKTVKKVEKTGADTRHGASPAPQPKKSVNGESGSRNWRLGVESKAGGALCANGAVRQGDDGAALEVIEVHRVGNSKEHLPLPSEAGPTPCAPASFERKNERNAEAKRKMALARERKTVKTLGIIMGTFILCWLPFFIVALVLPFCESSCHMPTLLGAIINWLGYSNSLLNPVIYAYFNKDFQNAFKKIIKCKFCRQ
# [12] = target: 5-hydroxytryptamine receptor 1B (Homo sapiens) (UniProt P28222); assay: Displacement of [3H]5-CT from human 5-HT1BR expressed in HEK cell membranes at 10 uM incubated for 90 mins under dark condition by microbeta scintillation counting method relative to control; settings: HEK293
# [13] = target: T2, 5-hydroxytryptamine receptor 2A; assay: Displacement of [3H]ketanserin from human 5-HT2A receptor expressed in HEK-T cell membranes at 10 uM incubated for 90 mins under dark condition by microbeta scintillation counting method relative to control
# Adenosine receptor A3 = target: T6, Adenosine receptor A3 (Homo sapiens, UniProt P0DMS8); assay: Displacement of [125l]N 6-(4-amino-3-iodobenzyl)adenosine-5'-N-methyluronamide from recombinant human A3AR expressed in CHO cell membranes after 60 mins by gamma counting method
# T6 sequence (P0DMS8 whole entry): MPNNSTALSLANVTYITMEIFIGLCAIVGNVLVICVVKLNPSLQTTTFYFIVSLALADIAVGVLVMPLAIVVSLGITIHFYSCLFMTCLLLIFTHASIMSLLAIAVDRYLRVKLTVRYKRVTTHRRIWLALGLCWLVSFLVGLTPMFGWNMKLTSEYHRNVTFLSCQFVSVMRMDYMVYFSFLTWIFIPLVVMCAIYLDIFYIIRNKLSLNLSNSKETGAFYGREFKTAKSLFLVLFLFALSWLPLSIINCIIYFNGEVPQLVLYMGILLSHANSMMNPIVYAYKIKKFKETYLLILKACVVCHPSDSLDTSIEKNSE
# Adenosine receptor A1 = target: T7, Adenosine receptor A1 (Homo sapiens, UniProt P30542); assay: Displacement of [3H]N6-phenylisopropyladenosine from recombinant human A1AR expressed in CHO cell membranes after 60 mins by liquid scintillation counting method
# T7 sequence (P30542 whole entry): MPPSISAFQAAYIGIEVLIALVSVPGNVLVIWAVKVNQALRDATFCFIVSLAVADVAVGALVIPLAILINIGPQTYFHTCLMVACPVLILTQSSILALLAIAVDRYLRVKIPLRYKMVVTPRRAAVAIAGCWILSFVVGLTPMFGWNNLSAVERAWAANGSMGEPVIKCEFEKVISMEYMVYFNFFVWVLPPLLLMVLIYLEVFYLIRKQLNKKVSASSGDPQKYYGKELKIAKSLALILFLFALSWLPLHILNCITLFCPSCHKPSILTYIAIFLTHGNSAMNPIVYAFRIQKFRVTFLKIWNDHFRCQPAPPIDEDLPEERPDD
# [14] = target: T8, 5-hydroxytryptamine receptor 2C (Homo sapiens, UniProt P28335); assay: Displacement of [3H]mesulergine from human 5-HT2CR expressed in Flp-In HEK cell membranes incubated for 90 mins under dark condition by microbeta scintillation counting method; design: species or system HEK293
# T8 sequence (P28335 whole entry): T3 sequence (whole entry)
# Adenosine receptor A2a = Adenosine receptor A2a (Homo sapiens, UniProt P29274); assay: Displacement of [3 H]2-[p-(2-carboxyethyl)phenyl-ethylamino]-5'-N-ethylcarboxamidoadenosine from recombinant human adenosine receptor A2A expressed in HEK293 cell membranes at 10 uM after 60 mins by liquid scintillation counting method relative to control
# [15] = target: T4, 5-hydroxytryptamine receptor 2B; assay: biochemical; type: cell-based, HEK293
# Chain of 5-hydroxytryptamine receptor 5A (Homo sapiens) (P47898 whole entry): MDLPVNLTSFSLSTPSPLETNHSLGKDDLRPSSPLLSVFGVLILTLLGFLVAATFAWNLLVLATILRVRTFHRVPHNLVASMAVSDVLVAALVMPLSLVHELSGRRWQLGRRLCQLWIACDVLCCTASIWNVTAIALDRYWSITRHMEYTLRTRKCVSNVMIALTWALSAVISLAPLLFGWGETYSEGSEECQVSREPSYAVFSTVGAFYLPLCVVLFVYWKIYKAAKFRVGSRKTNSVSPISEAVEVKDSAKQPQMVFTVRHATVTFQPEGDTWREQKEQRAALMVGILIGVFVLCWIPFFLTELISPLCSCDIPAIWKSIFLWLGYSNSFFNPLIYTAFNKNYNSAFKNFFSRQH
# T2 sequence (P28223 whole entry): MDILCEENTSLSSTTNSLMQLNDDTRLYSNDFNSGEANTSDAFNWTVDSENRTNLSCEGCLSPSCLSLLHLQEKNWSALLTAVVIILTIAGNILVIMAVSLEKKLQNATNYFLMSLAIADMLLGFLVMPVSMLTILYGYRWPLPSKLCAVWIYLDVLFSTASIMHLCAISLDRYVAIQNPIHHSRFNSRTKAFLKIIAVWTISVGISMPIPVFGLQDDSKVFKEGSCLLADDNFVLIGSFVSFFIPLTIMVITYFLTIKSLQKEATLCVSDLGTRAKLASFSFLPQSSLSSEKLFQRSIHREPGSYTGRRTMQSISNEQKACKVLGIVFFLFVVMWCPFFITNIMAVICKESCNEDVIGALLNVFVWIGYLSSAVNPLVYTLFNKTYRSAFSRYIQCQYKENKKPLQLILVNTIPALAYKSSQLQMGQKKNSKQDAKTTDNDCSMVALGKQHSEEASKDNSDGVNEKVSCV
# Chain of 5-hydroxytryptamine receptor 7 (Homo sapiens) (P34969 whole entry): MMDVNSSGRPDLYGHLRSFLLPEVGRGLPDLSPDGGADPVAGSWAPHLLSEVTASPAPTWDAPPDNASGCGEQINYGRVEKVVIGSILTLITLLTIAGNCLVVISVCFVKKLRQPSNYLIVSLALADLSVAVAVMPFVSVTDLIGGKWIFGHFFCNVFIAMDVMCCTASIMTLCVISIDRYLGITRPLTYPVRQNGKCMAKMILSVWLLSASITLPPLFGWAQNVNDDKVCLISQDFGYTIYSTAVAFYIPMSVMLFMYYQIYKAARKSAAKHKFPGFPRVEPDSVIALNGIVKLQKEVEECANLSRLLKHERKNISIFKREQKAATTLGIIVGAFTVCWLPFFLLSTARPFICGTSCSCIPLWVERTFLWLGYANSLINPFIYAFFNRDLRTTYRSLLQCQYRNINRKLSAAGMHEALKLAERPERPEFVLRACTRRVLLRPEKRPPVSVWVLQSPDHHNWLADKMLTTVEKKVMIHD
# Chain of 5-hydroxytryptamine receptor 1B (Homo sapiens) (P28222 whole entry): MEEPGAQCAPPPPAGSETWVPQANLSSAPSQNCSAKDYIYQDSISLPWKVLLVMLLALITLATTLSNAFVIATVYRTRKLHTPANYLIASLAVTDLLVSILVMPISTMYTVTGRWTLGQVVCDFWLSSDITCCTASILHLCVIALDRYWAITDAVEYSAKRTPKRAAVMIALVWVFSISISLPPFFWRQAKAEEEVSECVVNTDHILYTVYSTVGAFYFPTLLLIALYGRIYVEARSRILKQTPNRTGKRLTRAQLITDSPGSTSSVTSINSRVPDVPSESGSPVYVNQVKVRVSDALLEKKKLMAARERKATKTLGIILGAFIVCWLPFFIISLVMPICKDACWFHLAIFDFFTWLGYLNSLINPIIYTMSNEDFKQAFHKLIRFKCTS
# Chain of 5-hydroxytryptamine receptor 4 (Homo sapiens) (Q13639 whole entry): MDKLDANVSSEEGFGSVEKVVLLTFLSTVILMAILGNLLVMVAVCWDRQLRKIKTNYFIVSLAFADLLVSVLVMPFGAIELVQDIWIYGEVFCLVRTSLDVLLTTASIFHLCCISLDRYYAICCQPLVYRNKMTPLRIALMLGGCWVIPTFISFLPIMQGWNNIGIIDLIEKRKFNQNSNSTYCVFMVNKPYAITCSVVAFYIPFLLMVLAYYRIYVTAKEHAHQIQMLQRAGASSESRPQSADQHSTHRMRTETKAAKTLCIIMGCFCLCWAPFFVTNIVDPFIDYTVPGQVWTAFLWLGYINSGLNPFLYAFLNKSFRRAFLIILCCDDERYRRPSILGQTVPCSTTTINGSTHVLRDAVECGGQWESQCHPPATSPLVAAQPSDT
# Chain of 5-hydroxytryptamine receptor 6 (Homo sapiens) (P50406 whole entry): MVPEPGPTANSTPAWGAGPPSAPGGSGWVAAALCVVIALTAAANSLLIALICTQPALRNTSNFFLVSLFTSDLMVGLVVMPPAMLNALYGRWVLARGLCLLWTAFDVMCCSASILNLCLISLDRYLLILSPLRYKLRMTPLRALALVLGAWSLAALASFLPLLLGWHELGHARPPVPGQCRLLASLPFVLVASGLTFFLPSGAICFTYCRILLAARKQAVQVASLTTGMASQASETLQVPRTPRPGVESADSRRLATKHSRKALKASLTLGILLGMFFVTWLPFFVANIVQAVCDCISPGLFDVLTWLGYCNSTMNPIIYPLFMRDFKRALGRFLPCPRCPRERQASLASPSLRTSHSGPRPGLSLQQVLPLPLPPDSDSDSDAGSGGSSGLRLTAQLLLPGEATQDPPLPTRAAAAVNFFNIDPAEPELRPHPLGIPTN
# Chain of 5-hydroxytryptamine receptor 1E (Homo sapiens) (P28566 whole entry): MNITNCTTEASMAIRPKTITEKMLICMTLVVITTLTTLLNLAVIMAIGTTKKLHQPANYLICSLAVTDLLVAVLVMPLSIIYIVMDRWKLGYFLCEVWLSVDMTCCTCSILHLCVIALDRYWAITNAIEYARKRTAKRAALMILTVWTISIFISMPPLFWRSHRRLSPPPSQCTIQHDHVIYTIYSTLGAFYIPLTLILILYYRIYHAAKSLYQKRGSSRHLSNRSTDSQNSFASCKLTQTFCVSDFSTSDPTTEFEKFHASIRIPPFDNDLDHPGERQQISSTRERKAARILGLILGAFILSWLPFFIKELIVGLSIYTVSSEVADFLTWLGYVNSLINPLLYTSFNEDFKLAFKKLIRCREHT
# T4 sequence (P41595 whole entry): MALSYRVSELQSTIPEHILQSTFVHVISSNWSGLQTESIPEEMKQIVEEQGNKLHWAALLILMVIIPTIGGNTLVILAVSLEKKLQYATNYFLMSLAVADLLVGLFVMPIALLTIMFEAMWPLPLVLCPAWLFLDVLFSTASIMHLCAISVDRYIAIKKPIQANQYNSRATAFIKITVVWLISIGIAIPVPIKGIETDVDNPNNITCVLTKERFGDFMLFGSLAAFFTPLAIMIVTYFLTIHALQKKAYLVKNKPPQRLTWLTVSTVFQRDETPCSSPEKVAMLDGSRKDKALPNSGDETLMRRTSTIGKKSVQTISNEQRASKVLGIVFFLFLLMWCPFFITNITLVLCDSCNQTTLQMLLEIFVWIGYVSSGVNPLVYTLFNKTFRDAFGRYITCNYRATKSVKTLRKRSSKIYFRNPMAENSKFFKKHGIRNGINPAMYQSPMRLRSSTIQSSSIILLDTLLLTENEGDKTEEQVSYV
# Chain of 5-hydroxytryptamine receptor 1D (Homo sapiens) (P28221 whole entry): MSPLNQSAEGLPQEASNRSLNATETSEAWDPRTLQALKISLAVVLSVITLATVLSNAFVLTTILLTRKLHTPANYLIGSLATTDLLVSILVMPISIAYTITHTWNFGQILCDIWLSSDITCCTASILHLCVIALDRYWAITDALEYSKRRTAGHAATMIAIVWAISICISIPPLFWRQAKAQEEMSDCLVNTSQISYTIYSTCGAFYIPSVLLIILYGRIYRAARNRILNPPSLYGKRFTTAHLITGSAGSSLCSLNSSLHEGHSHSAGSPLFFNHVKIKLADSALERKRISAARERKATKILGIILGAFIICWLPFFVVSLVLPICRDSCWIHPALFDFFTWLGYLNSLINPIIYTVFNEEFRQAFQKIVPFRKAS
# Chain of Adenosine receptor A2a (P29274 whole entry): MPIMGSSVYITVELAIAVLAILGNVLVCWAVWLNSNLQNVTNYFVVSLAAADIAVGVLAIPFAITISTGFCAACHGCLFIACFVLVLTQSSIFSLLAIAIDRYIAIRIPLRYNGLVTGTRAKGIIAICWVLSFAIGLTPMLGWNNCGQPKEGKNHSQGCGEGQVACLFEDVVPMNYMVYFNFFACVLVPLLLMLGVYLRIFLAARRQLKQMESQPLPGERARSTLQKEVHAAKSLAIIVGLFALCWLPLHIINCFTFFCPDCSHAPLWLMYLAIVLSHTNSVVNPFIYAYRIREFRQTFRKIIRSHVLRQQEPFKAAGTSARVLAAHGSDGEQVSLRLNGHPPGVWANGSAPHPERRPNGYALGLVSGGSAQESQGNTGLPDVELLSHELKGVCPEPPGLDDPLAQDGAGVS
SMILES,inhibition [1] [%],inhibition [2] [%],inhibition [3] [%],inhibition [4] [%],Ki [5] [nM],inhibition [6] [%],inhibition [7] [%],inhibition [8] [%],inhibition [9] [%],inhibition [10] [%],inhibition [11] [%],inhibition [12] [%],inhibition [13] [%],Ki (Adenosine receptor A3) [nM],Ki (Adenosine receptor A1) [nM],Ki [14] [nM],inhibition (Adenosine receptor A2a) [%],Ki [15] [nM]
CNC(=O)[C@H]1O[C@@H](n2cnc3c(N)ncnc32)[C@H](O)[C@@H]1O,< 50,< 50,< 50,< 50,> 10000,< 50,< 50,< 50,< 10,< 10,< 50,< 50,< 10,,,,,
CC(C)[C@@H](Nc1nc(Cl)nc2c1ncn2[C@H]1[C@H](O)[C@H](O)[C@]2(CO)C[C@H]12)C1CC1,< 50,< 50,< 50,< 50,> 10000,< 50,< 50,< 50,> 50,,< 50,< 50,< 10,1240,103,190,,
CC(C)[C@H](Nc1nc(Cl)nc2c1ncn2[C@H]1[C@H](O)[C@H](O)[C@]2(CO)C[C@H]12)C1CC1,< 50,< 50,< 50,< 50,> 10000,< 50,< 50,< 50,> 50,,< 50,< 50,< 10,3450,104,672,,
O=C(O)[C@@]12C[C@@H]1[C@@H](n1cnc3c(NC(C4CC4)C4CC4)nc(Cl)nc31)[C@H](O)[C@@H]2O,< 50,< 50,< 50,< 50,> 10000,< 50,< 50,< 50,> 50,,< 50,< 50,< 10,5980,,2580,< 10,
OC[C@H]1O[C@@H](n2cnc3c(NC(C4CC4)C4CC4)ncnc32)[C@H](O)[C@@H]1O,< 50,< 50,< 50,< 50,> 10000,< 50,< 50,< 50,11,38,< 50,< 50,< 10,,,,,
O[C@@H]1[C@H](O)[C@@H]2C[C@@H]2[C@H]1n1cnc2c(NC(C3CC3)C3CC3)nc(Cl)nc21,,,,,> 10000,,,,,,,,< 10,,,,,675
Nc1nc(Cl)nc2c1ncn2[C@H]1[C@H](O)[C@H](O)[C@]2(CO)C[C@H]12,< 50,< 50,< 50,< 50,> 10000,< 50,< 50,< 50,< 10,> 50,< 50,< 50,< 10,,,,,> 10000
CNC(=O)[C@H]1O[C@@H](n2cnc3c(NCc4cccc(I)c4)ncnc32)[C@H](O)[C@@H]1O [IB-MECA],< 50,< 50,< 50,< 50,> 10000,< 50,< 50,< 50,> 50,> 50,< 50,< 50,< 10,,,,,
Nc1nc(Cl)nc2c1ncn2[C@@H]1O[C@H](CO)[C@@H](O)[C@H]1O,< 50,< 50,< 50,< 50,> 10000,< 50,< 50,< 50,< 10,< 10,< 50,< 50,46,,2.8,,,
CNC(=O)[C@H]1O[C@@H](n2cnc3c(NCc4cccc(I)c4)nc(Cl)nc32)[C@H](O)[C@@H]1O [NAMODENOSON],,,,,> 10000,,,,> 50,,,,30,,,10000,,2770
